From the supplement of paper PMC11061612

Key:
[1] = system: G-401 (Other Solid Carcinomas); test: combination Emax (second highest fraction inhibited in the dose matrix, 72 h); higher = more inhibition; extreme values may be limits of the assay
Method in brief: (§1)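 After 24 hours at 37°C and 5% CO2 in 1536-well plates, cells in DMEM/F12 or RPMI plus 10% FBS received two-drug dose matrices for 72 hours. Viability came from CellTiter-Glo 2.0 luminescence and was scaled as inhibition, anchored at 0 by vehicle wells and at 1 by blank wells. Combination Emax is taken as the second-highest inhibition in the matrix, and Bliss excess as the observed combination effect less EA + EB − EA·EB, with EA and EB the single-agent effects.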

[2] = system: OE33 (Esophageal Adenocarcinoma); test: as above
Method in brief: as §1

[3] = system: NCI-H1355 (Lung Adenocarcinoma); test: as above
Method in brief: as §1

EW-1 (Ewing's Sarcoma) = test: as above
Method in brief: as §1

[4] = system: HAL-01 (B-Lymphoblastic Leukemia); test: as above
Method in brief: as §1

[5] = system: SW872 (Other Solid Carcinomas); test: as above
Method in brief: as §1

[6] = system: NCI-H1092 (Small Cell Lung Carcinoma); test: as above
Method in brief: as §1

[7] = system: KOPN-8 (B-Lymphoblastic Leukemia); test: as above
Method in brief: as §1

[8] = system: NCI-H2122 (Lung Adenocarcinoma); test: as above
Method in brief: as §1

[9] = system: OACM5-1 (Esophageal Adenocarcinoma); test: as above
Method in brief: as §1

[10] = system: HCC1937 (Breast Carcinoma); test: as above
Method in brief: as §1

[11] = system: MDA-MB-453 (Breast Carcinoma); test: as above
Method in brief: as §1

[12] = system: HCC1500 (Breast Carcinoma); test: as above
Method in brief: as §1

[13] = system: ALL-SIL (T-Lymphoblastic Leukemia); test: as above
Method in brief: as §1

[14] = system: SNU-387 (Hepatocellular Carcinoma); test: as above
Method in brief: as §1

[15] = system: Ca-Ski (Cervical Carcinoma); test: as above
Method in brief: as §1

[16] = system: COLO-668 (Small Cell Lung Carcinoma); test: as above
Method in brief: as §1

[17] = system: A4-Fuk (B-Lymphoblastic Leukemia); test: as above
Method in brief: as §1

[18] = system: NCI-H650 (Lung Adenocarcinoma); test: Bliss excess, mean over the matrix (fraction); higher = more synergy
Method in brief: as §1

[19] = system: SW872 (Other Solid Carcinomas); test: as above
Method in brief: as §1
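For Bliss excess, mean over the matrix in this document: after 72 h of two-drug dosing.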

| Compound | combination Emax [1] | combination Emax [2] | combination Emax [3] | combination Emax (EW-1 (Ewing's Sarcoma)) | combination Emax [4] | combination Emax [5] | combination Emax [6] | combination Emax [7] | combination Emax [8] | combination Emax [9] | combination Emax [10] | combination Emax [11] | combination Emax [12] | combination Emax [13] | combination Emax [14] | combination Emax [15] | combination Emax [16] | combination Emax [17] | Bliss excess [18] | Bliss excess [19] |
| --- | --- | --- | --- | --- | --- | --- | --- | --- | --- | --- | --- | --- | --- | --- | --- | --- | --- | --- | --- | --- |
| CCN(CCO)CCCOc1ccc2c(Nc3cc(CC(=O)Nc4cccc(F)c4)[nH]n3)ncnc2c1 [AZD2811] + C[C@@H]1COCCN1C2=NC(=NC(=C2)C3(CC3)[S@](=N)(=O)C)C4=C5C=CNC5=NC=C4 [AZD6738] (first compound max 1 µM, 7x7, partner max 10 µM) | 0.536 | 0.8 | 0.679 | 0.852 | 0.99 | 0.571 | 0.236 | 0.855 | 0.902 | 0.44 | 0.47 | 0.807 | 0.312 | 0.981 | 0.494 | 0.607 | 0.644 | 0.747 | -0.0422 | -0.0219 |
| CCN(CCO)CCCOc1ccc2c(Nc3cc(CC(=O)Nc4cccc(F)c4)[nH]n3)ncnc2c1 [AZD2811] + O=C(c1cc(Cc2n[nH]c(=O)c3ccccc23)ccc1F)N1CCN(C(=O)C2CC2)CC1 [Olaparib] (first compound max 1 µM, 7x7, partner max 10 µM) | 0.496 | 0.127 | 0.318 | 0.709 | 0.37 | 0.172 | 0.212 | 0.709 | 0.437 | 0.247 | 0.238 | 0.112 | 0.22 | 0.953 | 0.17 | 0.289 | 0.178 | 0.437 | -0.003 | 0.017 |
| COc1nnc2ccc(N3CCC(c4ccc(OCCN5CCN(C)C(=O)[C@H]5C)cc4)CC3)nn12 [AZD5153] + C=CCn1c(=O)c2cnc(Nc3ccc(N4CCN(C)CC4)cc3)nc2n1-c1cccc(C(C)(C)O)n1 [AZD1775] (first compound max 1 µM, partner max 1 µM) | 0.914 | 0.435 | 0.57 | 0.883 | 0.88 | 0.593 | 0.684 | 1 | 0.993 | 0.869 | 0.472 | 0.731 | 0.402 | 0.98 | 0.469 | 0.791 | 0.665 | 0.967 | -0.0866 | -0.0374 |
